{"source": "ChEMBL document CHEMBL5465560", "about": "“Selectivity Literature for EUbOPEN Chemogenomic Library” (2024)", "key": {"[1]": {"molecular_target": "Ribosomal protein S6 kinase alpha-2 (Homo sapiens) (UniProt Q15349)", "sequence (Q15349 whole entry)": "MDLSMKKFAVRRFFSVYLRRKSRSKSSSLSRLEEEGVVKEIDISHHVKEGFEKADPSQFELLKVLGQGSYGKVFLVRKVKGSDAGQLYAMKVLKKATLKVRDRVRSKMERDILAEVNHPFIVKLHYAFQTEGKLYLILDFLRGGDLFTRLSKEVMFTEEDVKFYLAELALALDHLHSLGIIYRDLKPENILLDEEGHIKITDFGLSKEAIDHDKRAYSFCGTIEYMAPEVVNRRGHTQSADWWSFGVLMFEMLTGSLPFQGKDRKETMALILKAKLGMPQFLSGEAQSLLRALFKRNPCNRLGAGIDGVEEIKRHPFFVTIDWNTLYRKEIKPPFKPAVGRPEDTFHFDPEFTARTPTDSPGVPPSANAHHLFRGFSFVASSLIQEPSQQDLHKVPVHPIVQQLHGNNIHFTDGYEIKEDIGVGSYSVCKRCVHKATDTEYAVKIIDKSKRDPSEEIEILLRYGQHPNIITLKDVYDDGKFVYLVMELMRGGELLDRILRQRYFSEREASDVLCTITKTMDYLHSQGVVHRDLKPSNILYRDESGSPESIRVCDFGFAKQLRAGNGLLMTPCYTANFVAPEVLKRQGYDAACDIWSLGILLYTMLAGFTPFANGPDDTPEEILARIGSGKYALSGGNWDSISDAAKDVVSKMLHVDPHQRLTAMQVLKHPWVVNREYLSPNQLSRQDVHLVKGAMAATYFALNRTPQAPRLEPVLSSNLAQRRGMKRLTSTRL", "test": "Selectivity interaction (Kinome Scan (DiscoverX)) EUB0000229b RPS6KA2", "conditions": "at 10 µM"}, "[2]": {"molecular_target": "Serine/threonine-protein kinase PAK 1 (Homo sapiens) (UniProt Q13153)", "test": "Selectivity interaction (KinomeScan (DiscoverX)) EUB0000229b PAK1", "conditions": "at 10 µM"}, "[3]": {"molecular_target": "Serine/threonine-protein kinase PAK 4 (Homo sapiens, UniProt O96013)", "sequence (O96013 whole entry, looked up)": "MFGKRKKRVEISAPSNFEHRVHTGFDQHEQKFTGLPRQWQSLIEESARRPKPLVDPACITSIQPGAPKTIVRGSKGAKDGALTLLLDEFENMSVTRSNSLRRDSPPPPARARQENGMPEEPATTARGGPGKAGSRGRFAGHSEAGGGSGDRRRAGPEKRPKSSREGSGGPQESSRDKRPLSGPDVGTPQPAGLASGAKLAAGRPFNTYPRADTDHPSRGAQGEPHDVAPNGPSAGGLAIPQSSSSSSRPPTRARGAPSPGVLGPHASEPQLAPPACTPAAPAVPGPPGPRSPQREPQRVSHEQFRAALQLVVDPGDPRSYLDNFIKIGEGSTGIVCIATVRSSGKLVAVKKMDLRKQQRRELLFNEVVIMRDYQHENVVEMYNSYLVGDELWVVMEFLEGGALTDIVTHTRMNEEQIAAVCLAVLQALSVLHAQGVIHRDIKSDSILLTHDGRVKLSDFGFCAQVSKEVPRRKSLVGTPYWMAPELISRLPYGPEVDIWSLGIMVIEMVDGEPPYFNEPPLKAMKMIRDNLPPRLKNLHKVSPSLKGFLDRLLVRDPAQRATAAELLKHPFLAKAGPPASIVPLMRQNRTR", "test": "Selectivity interaction (KinomeScan (DiscoverX)) EUB0000045b PAK4"}, "[4]": {"molecular_target": "Serine/threonine-protein kinase Nek7 (Homo sapiens) (UniProt Q8TDX7)", "sequence (Q8TDX7 whole entry, looked up)": "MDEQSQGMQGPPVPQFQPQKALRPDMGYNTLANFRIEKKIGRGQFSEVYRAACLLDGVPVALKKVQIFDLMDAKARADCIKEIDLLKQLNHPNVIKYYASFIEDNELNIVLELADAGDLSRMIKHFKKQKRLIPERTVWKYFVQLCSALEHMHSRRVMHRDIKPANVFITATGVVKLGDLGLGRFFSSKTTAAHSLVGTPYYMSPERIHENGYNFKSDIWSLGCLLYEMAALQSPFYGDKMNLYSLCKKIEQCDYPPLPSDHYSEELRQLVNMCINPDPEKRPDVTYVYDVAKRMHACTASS", "test": "Selectivity interaction (KinomeScan (DiscoverX)) EUB0000045b NEK7"}, "[5]": {"molecular_target": "LIM domain kinase 2 (Homo sapiens) (UniProt P53671)", "conditions": "at 10 µM"}, "[6]": {"molecular_target": "Serine/threonine-protein kinase MRCK gamma (Homo sapiens) (UniProt Q6DT37)", "test": "Selectivity interaction (KinomeScan (DiscoverX)) EUB0001049a CDC42BPG", "conditions": "at 1 µM"}, "[7]": {"molecular_target": "5'-AMP-activated protein kinase catalytic subunit alpha-1 (Homo sapiens, UniProt Q13131)", "sequence (Q13131 whole entry, looked up)": "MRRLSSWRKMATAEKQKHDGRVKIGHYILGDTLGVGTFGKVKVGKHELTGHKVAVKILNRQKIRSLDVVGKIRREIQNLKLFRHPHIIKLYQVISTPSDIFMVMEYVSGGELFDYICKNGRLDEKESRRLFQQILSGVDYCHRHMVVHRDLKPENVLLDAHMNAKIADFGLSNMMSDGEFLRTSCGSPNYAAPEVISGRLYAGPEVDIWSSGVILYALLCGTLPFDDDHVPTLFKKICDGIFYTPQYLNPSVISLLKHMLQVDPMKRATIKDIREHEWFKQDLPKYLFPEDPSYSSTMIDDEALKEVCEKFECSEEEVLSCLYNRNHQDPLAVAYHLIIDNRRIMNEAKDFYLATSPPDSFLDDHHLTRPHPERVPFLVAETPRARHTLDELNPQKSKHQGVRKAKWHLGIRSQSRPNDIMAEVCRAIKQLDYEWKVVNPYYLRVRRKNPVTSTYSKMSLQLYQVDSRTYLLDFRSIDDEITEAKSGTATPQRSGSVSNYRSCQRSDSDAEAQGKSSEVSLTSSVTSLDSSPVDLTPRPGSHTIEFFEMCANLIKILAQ", "test": "Selectivity interaction (ProQinase) EUB0000171b PRKAA1"}, "[8]": {"molecular_target": "T1, Ankyrin repeat and protein kinase domain-containing protein 1 (Homo sapiens) (UniProt Q8NFD2)", "T1 sequence (whole entry)": "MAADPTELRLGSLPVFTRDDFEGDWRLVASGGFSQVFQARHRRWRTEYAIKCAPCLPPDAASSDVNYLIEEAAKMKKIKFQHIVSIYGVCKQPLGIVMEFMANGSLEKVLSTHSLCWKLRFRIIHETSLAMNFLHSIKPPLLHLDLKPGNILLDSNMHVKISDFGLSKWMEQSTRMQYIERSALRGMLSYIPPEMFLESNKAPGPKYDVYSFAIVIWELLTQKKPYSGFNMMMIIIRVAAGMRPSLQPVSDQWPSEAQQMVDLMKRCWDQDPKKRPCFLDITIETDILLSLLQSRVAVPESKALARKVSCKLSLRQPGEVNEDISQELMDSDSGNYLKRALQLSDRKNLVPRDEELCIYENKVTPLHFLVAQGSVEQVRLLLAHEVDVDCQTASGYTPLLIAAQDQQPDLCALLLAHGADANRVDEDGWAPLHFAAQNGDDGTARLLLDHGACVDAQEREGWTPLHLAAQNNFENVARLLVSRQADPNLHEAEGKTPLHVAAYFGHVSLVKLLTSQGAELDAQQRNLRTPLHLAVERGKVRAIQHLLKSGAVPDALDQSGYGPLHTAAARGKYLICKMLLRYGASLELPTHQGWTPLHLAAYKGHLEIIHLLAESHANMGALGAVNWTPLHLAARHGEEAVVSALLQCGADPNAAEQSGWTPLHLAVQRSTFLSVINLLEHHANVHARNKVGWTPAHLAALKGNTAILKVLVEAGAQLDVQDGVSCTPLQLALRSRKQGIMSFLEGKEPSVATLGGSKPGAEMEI", "test": "Selectivity interaction (KinomeScan (DiscoverX)) EUB0001619a ANKK1", "conditions": "at 1 µM"}, "[9]": {"molecular_target": "T2, Megakaryocyte-associated tyrosine-protein kinase (Homo sapiens) (UniProt P42679)", "T2 sequence (whole entry)": "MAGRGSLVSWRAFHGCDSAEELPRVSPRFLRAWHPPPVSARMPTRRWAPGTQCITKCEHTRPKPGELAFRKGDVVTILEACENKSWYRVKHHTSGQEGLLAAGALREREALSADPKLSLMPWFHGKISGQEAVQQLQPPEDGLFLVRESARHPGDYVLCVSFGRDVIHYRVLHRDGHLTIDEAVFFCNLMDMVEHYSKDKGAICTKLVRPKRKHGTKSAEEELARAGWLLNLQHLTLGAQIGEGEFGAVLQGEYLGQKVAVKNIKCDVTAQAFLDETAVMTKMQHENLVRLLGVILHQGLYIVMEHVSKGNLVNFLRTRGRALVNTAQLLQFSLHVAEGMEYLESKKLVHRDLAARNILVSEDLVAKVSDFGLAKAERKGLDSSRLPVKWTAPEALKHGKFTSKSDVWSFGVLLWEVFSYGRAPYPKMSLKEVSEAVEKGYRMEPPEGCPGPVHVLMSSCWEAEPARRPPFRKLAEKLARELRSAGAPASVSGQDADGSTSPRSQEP", "test": "Selectivity interaction (SelectScreen profiling (Invitrogen)) EUB0000607a MATK", "conditions": "at 2 µM"}, "[10]": {"molecular_target": "Myosin light chain kinase 2, skeletal/cardiac muscle (Homo sapiens) (UniProt Q9H1R3)", "test": "Selectivity interaction (KinomeScan (DiscoverX)) EUB0000618a MYLK2", "conditions": "at 10 µM"}, "[11]": {"molecular_target": "Serine/threonine-protein kinase pim-1 (Homo sapiens, UniProt P11309)", "test": "Selectivity interaction (KinomeScan (DiscoverX)) EUB0000618a PIM1", "conditions": "at 10 µM"}, "Aurora kinase B": {"molecular_target": "Aurora kinase B (Homo sapiens, UniProt Q96GD4)", "sequence (Q96GD4 whole entry)": "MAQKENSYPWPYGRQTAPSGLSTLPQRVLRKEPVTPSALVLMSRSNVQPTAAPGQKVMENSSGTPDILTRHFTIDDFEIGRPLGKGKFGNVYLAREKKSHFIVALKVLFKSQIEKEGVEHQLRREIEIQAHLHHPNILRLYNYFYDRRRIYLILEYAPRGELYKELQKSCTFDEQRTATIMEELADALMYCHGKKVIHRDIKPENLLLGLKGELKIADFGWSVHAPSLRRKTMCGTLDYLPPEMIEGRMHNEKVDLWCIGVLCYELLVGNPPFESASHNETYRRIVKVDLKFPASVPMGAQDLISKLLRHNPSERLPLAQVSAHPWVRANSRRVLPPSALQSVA", "test": "Selectivity interaction (ActivX KiNativ screen (kinase selectivity in THP-1 cell lysates)) EUB0000639a AURKB", "assay_type": "subcellular", "conditions": "lysate, at 0.04 µM"}, "[12]": {"molecular_target": "Serine/threonine-protein kinase N1 (Homo sapiens, UniProt Q16512)", "sequence (Q16512 2-942 limits assumed)": "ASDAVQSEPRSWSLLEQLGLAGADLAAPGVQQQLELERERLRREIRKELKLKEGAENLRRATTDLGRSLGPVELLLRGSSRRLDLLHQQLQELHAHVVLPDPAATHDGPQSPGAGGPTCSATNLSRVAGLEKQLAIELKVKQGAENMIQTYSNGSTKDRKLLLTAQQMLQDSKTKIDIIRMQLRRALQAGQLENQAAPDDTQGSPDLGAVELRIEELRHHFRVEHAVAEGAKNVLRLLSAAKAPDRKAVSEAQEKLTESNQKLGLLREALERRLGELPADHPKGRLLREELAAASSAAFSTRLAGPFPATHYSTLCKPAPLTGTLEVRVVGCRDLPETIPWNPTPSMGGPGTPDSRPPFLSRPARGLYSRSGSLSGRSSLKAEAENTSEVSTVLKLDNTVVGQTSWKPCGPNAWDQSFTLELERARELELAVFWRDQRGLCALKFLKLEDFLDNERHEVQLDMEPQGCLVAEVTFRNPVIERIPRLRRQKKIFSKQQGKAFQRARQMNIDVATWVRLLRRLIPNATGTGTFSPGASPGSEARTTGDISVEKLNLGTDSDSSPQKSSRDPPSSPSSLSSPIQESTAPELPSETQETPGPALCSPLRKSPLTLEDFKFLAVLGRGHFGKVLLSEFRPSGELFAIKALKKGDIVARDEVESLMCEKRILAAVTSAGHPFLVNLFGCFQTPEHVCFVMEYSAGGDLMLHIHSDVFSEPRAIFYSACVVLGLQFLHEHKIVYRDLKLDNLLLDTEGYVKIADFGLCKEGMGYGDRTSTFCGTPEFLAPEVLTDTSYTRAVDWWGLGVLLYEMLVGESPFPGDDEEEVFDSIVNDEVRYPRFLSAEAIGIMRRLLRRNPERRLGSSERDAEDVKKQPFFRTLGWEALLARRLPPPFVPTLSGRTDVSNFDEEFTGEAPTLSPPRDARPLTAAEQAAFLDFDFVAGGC", "test": "Selectivity interaction (ActivX KiNativ screen (kinase selectivity in THP-1 cell lysates)) EUB0000639a PKN1", "assay_type": "subcellular", "conditions": "lysate, at 1 µM"}, "[13]": {"molecular_target": "Activin receptor type-1-like (Homo sapiens) (UniProt P37023)", "conditions": "at 10 µM"}, "[14]": {"molecular_target": "MAP/microtubule affinity-regulating kinase 3 (Homo sapiens) (UniProt P27448)", "sequence (P27448 whole entry, looked up)": "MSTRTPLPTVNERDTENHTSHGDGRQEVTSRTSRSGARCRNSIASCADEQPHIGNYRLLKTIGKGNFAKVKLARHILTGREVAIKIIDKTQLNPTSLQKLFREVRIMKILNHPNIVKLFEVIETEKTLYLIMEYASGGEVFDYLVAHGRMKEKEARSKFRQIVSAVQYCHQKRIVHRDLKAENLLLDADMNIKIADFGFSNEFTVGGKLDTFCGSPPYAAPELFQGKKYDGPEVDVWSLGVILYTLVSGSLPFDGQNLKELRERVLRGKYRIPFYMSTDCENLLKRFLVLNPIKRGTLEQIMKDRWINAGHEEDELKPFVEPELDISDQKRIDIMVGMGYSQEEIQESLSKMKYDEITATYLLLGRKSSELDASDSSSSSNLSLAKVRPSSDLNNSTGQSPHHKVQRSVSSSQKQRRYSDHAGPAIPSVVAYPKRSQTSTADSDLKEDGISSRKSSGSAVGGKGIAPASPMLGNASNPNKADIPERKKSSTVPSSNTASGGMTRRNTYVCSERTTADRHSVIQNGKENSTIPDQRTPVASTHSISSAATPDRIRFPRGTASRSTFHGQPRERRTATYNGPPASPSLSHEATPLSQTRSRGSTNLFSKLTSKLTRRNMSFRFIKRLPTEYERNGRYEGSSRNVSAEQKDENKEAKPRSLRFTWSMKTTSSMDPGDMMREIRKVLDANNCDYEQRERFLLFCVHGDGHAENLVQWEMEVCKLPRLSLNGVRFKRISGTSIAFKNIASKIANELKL", "conditions": "at 10 µM"}, "[15]": {"molecular_target": "T3, MAP kinase-activated protein kinase 5 (Homo sapiens) (UniProt Q8IW41)", "T3 sequence (whole entry)": "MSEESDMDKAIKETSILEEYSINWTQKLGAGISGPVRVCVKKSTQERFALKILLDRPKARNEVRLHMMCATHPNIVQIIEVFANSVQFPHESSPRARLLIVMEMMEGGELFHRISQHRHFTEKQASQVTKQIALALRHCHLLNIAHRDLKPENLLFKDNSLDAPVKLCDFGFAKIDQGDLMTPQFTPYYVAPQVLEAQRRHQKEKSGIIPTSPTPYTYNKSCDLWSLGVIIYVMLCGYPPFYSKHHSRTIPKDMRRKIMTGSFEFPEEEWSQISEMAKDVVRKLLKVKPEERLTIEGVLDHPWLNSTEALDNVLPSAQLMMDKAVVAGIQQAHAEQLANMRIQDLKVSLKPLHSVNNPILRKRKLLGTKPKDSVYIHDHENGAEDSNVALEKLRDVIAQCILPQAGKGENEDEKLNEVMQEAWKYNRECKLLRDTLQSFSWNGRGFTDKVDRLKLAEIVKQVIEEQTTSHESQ", "test": "Selectivity interaction (Ambit KINOMEscan and KiNATiv profiling in Jurkat cells) EUB0000090b MAPKAPK5", "assay_type": "cell-based", "conditions": "at 1 µM"}, "[16]": {"molecular_target": "Receptor-interacting serine/threonine-protein kinase 2 (Homo sapiens, UniProt O43353)", "sequence (O43353 whole entry)": "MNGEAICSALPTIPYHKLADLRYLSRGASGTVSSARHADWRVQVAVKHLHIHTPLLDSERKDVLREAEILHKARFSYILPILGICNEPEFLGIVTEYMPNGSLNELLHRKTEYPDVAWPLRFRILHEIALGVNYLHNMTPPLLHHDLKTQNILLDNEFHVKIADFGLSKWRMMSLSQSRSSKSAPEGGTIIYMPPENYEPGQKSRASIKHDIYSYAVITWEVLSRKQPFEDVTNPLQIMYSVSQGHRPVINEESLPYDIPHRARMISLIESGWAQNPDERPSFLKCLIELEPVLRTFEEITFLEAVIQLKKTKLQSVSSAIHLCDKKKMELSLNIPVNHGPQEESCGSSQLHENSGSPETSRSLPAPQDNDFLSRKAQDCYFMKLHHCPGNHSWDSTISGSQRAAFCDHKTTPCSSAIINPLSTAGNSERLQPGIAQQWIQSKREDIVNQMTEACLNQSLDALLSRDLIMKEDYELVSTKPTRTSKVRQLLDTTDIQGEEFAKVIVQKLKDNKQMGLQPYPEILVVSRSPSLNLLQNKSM", "test": "Selectivity interaction (Ambit KINOMEscan and KiNATiv profiling in Jurkat cells) EUB0000090b RIPK2", "assay_type": "cell-based", "conditions": "at 1 µM"}}}
{"smiles": "COc1cc(N(C)c2ccnc3ccc(C(F)(F)F)cc23)cc(OC)c1OC", "values": [{"measurement": "% binding", "setting": "[1]", "value": 84, "unit": "%"}, {"measurement": "% binding", "setting": "[2]", "value": 89, "unit": "%"}]}
{"smiles": "C=CC(=O)Nc1cc(-n2c(=O)ccc3cnc4ccc(-c5ccc(NS(C)(=O)=O)cc5)cc4c32)ccc1C", "values": [{"measurement": "% of control", "setting": "[3]; at 1 µM", "value": 100, "unit": "%"}, {"measurement": "% of control", "setting": "[3]; at 10 µM", "value": 100, "unit": "%"}, {"measurement": "% of control", "setting": "[4]; at 1 µM", "value": 100, "unit": "%"}, {"measurement": "% of control", "setting": "[4]; at 10 µM", "value": 71, "unit": "%"}]}
{"smiles": "Cc1cc([C@@H](C)Nc2ccccc2C(=O)O)c2nc(N3CCOCC3)cc(=O)n2c1", "note": "[AZD-6482]", "values": [{"measurement": "% of control", "setting": "[5]", "value": 100, "unit": "%"}]}
{"smiles": "COc1cc(Nc2nc(C)cc(-c3cnn4nc(OC)ccc34)n2)cc(C(F)(F)F)c1", "values": [{"measurement": "% of control", "setting": "[6]", "value": 89, "unit": "%"}]}
{"smiles": "C=CC(=O)Nc1cccc(C(=O)Nc2ccc(Nc3cc(-c4[nH]c(SC)nc4C)ccn3)cc2)c1", "values": [{"measurement": "% of control", "setting": "[7]; at 1 µM", "value": 100, "unit": "%"}, {"measurement": "% of control", "setting": "[7]; at 5 µM", "value": 93, "unit": "%"}]}
{"smiles": "N#Cc1cccc(-c2c[nH]c3ncnc(N4CCOCC4)c23)c1", "values": [{"measurement": "% of control", "setting": "[8]", "value": 98, "unit": "%"}]}
{"smiles": "CNC(=O)Nc1ccc(-c2nc(N3CC4CCC(C3)O4)c3cnn(C4CCC5(CC4)OCCO5)c3n2)cc1", "values": [{"measurement": "% of inhibition", "setting": "[9]", "value": 2, "unit": "%"}]}
{"smiles": "O[C@H]1CC[C@H](Nc2ncc3nc(Nc4c(F)cc(F)cc4F)n([C@H]4CCOC4)c3n2)CC1", "values": [{"measurement": "% of control", "setting": "[10]", "value": 100, "unit": "%"}, {"measurement": "% of control", "setting": "[11]", "value": 100, "unit": "%"}]}
{"smiles": "CC[C@@H]1[C@H](F)C(=O)N[C@@H]1COc1nccc2cc(C(N)=O)c(OC)cc12", "note": "[ZIMLOVISERTIB]", "values": [{"measurement": "% of inhibition", "setting": "Aurora kinase B", "value": -1.3, "unit": "%"}, {"measurement": "% of inhibition", "setting": "[12]", "value": -0.1, "unit": "%"}]}
{"smiles": "CCN(CC)CCCCNc1ncc2cc(-c3cc(OC)cc(OC)c3)c(NC(=O)NC(C)(C)C)nc2n1", "values": [{"measurement": "% of control", "setting": "[13]", "value": 100, "unit": "%"}, {"measurement": "% of control", "setting": "[14]", "value": 100, "unit": "%"}]}
{"smiles": "CN(C)C/C=C/C(=O)Nc1ccc(C(=O)N2CCCC(Nc3ncc(Cl)c(-c4c[nH]c5ccccc45)n3)C2)cc1", "note": "(stereo not given)", "values": [{"measurement": "% of control", "setting": "[15]", "value": 99, "unit": "%"}, {"measurement": "% of control", "setting": "[16]", "value": 88, "unit": "%"}]}
